Values quoted from earlier work as cited in patent US9173857B2, “Controlled dose drug delivery system” (Shire LLC, priority 2006, dated 2015).

What was measured:
[1] = pulsatile capsule with release after a nominal 5-hr period; majority of subjects
[2] = wax-surfactant coating, higher coating level (60%)

amounts of the drug observed in the blood [1] | lag time of drug release [2] | time required for complete release after the lag time [2] | SMILES
no measurable amounts | – | – | C[C@H](CS)C(=O)N1CCC[C@H]1C(=O)O [captopril]
– | two-hour | three hours | Cn1c(=O)c2[nH]cnc2n(C)c1=O [theophylline]
